Where a SMILES comes first, the peptide text is derived from it. Bridges are numbered along the chain shown (N, C = ends). [ ]: non-standard residue; d: D form. The star is where a group is joined. Hexanoyl = CCCCCC(=O)* A value given as a limit tells only on which side of the number the result lay.

In the first test the target is T1, NPR-B (Homo sapiens, UniProt P20594).
T1 construct: a functional assay using endogenously NPR-B expressing GTM-3 cells; endogenous in cells; host or cells: GTM-3 (transformed human trabecular meshwork cells)
T1 sequence (P20594 23-1047): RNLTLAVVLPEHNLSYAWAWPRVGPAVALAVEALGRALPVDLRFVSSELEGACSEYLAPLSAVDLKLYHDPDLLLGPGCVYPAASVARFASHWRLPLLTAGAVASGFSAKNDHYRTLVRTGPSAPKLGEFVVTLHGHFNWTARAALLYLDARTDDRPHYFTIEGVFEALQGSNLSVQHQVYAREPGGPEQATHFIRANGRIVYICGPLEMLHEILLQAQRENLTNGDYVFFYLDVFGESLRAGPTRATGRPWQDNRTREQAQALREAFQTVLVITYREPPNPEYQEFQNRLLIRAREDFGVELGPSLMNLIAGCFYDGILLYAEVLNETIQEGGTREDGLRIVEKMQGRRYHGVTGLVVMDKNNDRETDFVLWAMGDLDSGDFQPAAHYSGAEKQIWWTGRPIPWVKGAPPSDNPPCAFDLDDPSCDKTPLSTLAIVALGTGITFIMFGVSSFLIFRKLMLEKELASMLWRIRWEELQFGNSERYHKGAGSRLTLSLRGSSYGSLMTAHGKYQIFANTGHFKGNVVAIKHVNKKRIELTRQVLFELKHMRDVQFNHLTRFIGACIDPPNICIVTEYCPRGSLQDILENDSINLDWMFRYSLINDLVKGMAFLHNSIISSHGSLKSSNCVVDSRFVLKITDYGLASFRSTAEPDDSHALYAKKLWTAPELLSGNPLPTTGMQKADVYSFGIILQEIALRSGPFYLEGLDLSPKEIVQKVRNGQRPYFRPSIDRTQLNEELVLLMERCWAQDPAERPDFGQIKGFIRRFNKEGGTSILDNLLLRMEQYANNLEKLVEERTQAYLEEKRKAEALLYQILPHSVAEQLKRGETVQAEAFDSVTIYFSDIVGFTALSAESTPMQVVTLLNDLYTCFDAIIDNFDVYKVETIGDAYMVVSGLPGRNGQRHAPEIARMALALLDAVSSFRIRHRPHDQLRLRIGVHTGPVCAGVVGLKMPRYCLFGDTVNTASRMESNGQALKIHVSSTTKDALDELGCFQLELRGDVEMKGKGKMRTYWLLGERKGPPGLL
As to the kind of experiment: NPR-B induced production of cyclic GMP in GTM-3 cells. It is filed as cell-based. The settings on record: Activity (group): NPR-B activation, EC50 and Emax (CNP = 100%). The procedure: The efficacy and potency of compounds to activate NPR-B were evaluated in a functional assay using endogenously NPR-B expressing GTM-3 cells (Pang et al. 1994, Curr Eye Res 13:51-63). In this assay the dose dependent production of cyclic GMP (cGMP) is determined and Emax (maximum activation) and EC50 values are calculated.
The cell culture medium is aspirated and each well is washed with 200 μl DMEM/Ham's F12=Medium (Gibco). Then, 200 μl Medium supplemented with 1 mM IBMX (3-Isobutyl-1-methyl-xanthin, Sigma) is added to each well and incubated for 15 min. at room temperature.
Final compound concentrations are in the range from 45 μM to 20 nM.
For the molecule `CCCCCC(=O)N[C@H]1CSSC[C@@H](C(N)=O)NC(=O)[C@H](CO)NC(=O)[C@H]([C@@H](C)CC)NC(=O)[C@H](CCCNC(=N)N)NC(=O)[C@H](CC(=O)O)NC(=O)[C@H](CC(C)C)NC(=O)[C@H](CCCCN)NC(=O)[C@H](CC(C)C)NC(=O)CNC(=O)[C@H](Cc2ccccc2)NC(=O)[C@@H](C)NC1=O` [compound 65], the EC50 – broadly, the concentration at which the effect is half-maximal – was under 1 µM.

As for `CCC(=O)N[C@H]1CSSC[C@@H](C(N)=O)NC(=O)[C@H](CO)NC(=O)[C@H]([C@@H](C)CC)NC(=O)[C@H](CCCNC(=N)N)NC(=O)[C@H](CC(=O)O)NC(=O)[C@H](CC(C)C)NC(=O)[C@H](CCCCN)NC(=O)[C@H](CC(C)C)NC(=O)CNC(=O)[C@H](Cc2ccccc2)NC(=O)[C@@H](C)NC1=O` [compound 62], the EC50 is under 5 µM.

For `CC[C@H](C)[C@@H]1NC(=O)[C@H](CCCNC(=N)N)NC(=O)[C@H](CC(=O)O)NC(=O)[C@H](CC(C)C)NC(=O)[C@H](CCCCN)NC(=O)[C@H](CC(C)C)NC(=O)CNC(=O)[C@H](Cc2ccccc2)NC(=O)[C@@H](C)NC(=O)[C@@H](NC(=O)CCCC(C)C)CSSC[C@@H](C(N)=O)NC(=O)[C@H](CO)NC1=O` [compound 67], the EC50 was under 1 µM.

Still in this test, the particulars now being: Activity (group): NPR-B activation, EC50 and Emax (CNP = 100%), GTM-3 cells; group needs both EC50 and Emax criteria, checked A then B then C.
With `CC[C@H](C)[C@@H]1NC(=O)[C@H](CCCNC(=N)N)NC(=O)[C@H](CC(=O)O)NC(=O)[C@H](CC(C)C)NC(=O)[C@H](CCCCN)NC(=O)[C@H](Cc2c[nH]cn2)NC(=O)CNC(=O)[C@H](Cc2ccccc2)NC(=O)[C@H](Cc2c[nH]cn2)NC(=O)[C@@H](NC(=O)[C@@H](N)CCSC)CSSC[C@@H](C(N)=O)NC(=O)[C@H](CO)NC1=O` [compound 20] (H-MCHFGHKLDRISC-NH2; disulfide 2-13), the EC50 is under 5 µM.

`CC[C@H](C)[C@@H]1NC(=O)[C@H](CCCNC(=N)N)NC(=O)[C@H](CC(=O)O)NC(=O)[C@H](CC(C)C)NC(=O)[C@H](CCCCN)NC(=O)[C@H](CC(C)C)NC(=O)CNC(=O)[C@H](Cc2ccccc2)NC(=O)[C@@H](C)NC(=O)[C@@H](NC(=O)Cc2ccccc2)CSSC[C@@H](C(N)=O)NC(=O)[C@H](CO)NC1=O` [compound 69] showed an EC50 of under 5 µM.

Staying with this test, now noted: GTM3; GTM-3 cells, FIG. 2, CNP = 100%; read-out: Emax (maximum activation) relative to CNP.
With `CC[C@H](C)[C@@H]1NC(=O)[C@H](CCCNC(=N)N)NC(=O)[C@H](CC(=O)O)NC(=O)[C@H](CCSC)NC(=O)[C@H](CCCNC(=N)N)NC(=O)CNC(=O)CNC(=O)[C@H](Cc2ccccc2)NC(=O)[C@H](Cc2c[nH]cn2)NC(=O)[C@@H](NC(=O)[C@@H](N)CCSC)CSSC[C@@H](C(=O)N[C@@H](Cc2ccc(O)cc2)C(=O)N[C@@H](CCCNC(=N)N)C(N)=O)NC(=O)[C@H](CO)NC1=O` [mini-ANP, reference compound] (H-MCHFGGRMDRISCYR-NH2; disulfide 2-13), the Emax (in general, the maximal effect, on the per cent scale that the assay sets) is 0%.

The test is the same for the next values; noted with them: GTM-3 cells, FIG. 2, highest concentration 45 μM; read-out: EC50, cyclic GMP production.
In the case of `CC[C@H](C)[C@@H]1NC(=O)[C@H](CCCNC(=N)N)NC(=O)[C@H](CC(=O)O)NC(=O)[C@H](CCSC)NC(=O)[C@H](CCCNC(=N)N)NC(=O)CNC(=O)CNC(=O)[C@H](Cc2ccccc2)NC(=O)[C@H](Cc2c[nH]cn2)NC(=O)[C@@H](NC(=O)[C@@H](N)CCSC)CSSC[C@@H](C(=O)N[C@@H](Cc2ccc(O)cc2)C(=O)N[C@@H](CCCNC(=N)N)C(N)=O)NC(=O)[C@H](CO)NC1=O` [mini-ANP, reference compound] (H-MCHFGGRMDRISCYR-NH2; disulfide 2-13), the 50% effective concentration (EC50) is over 45 µM.

Still in this test, the particulars now being: GTM-3 cells; group needs both EC50 and Emax criteria, checked A then B then C; read-out: Activity (group): NPR-B activation, EC50 and Emax (CNP = 100%).
As to `CC[C@H](C)[C@@H]1NC(=O)[C@H](CCCNC(=N)N)NC(=O)[C@H](CC(=O)O)NC(=O)[C@H](CC(C)C)NC(=O)[C@H](CCCCN)NC(=O)[C@H](CC(C)C)NC(=O)[C@@H](C)NC(=O)[C@H](Cc2ccccc2)NC(=O)CNC(=O)[C@@H](NC(=O)[C@@H](N)CCSC)CSSC[C@@H](C(N)=O)NC(=O)[C@H](CO)NC1=O` [compound 34] (H-MCGF[dA]LKLDRISC-NH2; disulfide 2-13), the EC50 is under 5 µM.

`CCCC[C@H](N)C(=O)N[C@H]1CSSC[C@@H](C(N)=O)NC(=O)[C@H](CO)NC(=O)[C@H]([C@@H](C)CC)NC(=O)[C@H](CCCNC(=N)N)NC(=O)[C@H](CC(=O)O)NC(=O)[C@H](CC(C)C)NC(=O)[C@H](CCCCN)NC(=O)[C@H](CC(C)C)NC(=O)CNC(=O)[C@H](Cc2ccccc2)NC(=O)[C@H](Cc2c[nH]cn2)NC1=O` [compound 16]: the EC50 was under 15 µM.

For the molecule `CC[C@H](C)[C@@H]1NC(=O)[C@H](CCCNC(=N)N)NC(=O)[C@H](CC(=O)O)NC(=O)[C@H](CC(C)C)NC(=O)[C@H](CCCCN)NC(=O)[C@H](CC(C)C)NC(=O)CNC(=O)[C@H](Cc2ccccc2)NC(=O)[C@H](Cc2c[nH]cn2)NC(=O)[C@@H](NC(=O)[C@@H](N)CCSC)CSSC[C@@H](C(=O)N[C@@H](Cc2c[nH]c3ccccc23)C(=O)N[C@@H](CCCNC(=N)N)C(N)=O)NC(=O)[C@H](CO)NC1=O` [compound 21] (H-MCHFGLKLDRISCWR-NH2; disulfide 2-13), the EC50 was under 15 µM.

As for `CCCCCC(=O)N[C@H]1CSSC[C@@H](C(N)=O)NC(=O)[C@H](CO)NC(=O)[C@H]([C@@H](C)CC)NC(=O)[C@H](Cc2ccc(C(=N)N)cc2)NC(=O)[C@H](CC(=O)O)NC(=O)[C@H](CC(C)C)NC(=O)[C@H](CCCCN)NC(=O)[C@H](CC(C)C)NC(=O)CNC(=O)[C@H](Cc2ccccc2)NC(=O)[C@@H](C)NC1=O` [compound 112], the EC50 is under 15 µM.

For `CCCCCC(=O)N[C@H]1CSSC[C@@H](C(N)=O)NC(=O)[C@H](CO)NC(=O)[C@H]([C@@H](C)CC)NC(=O)[C@H](CCCNC(=N)N)NC(=O)[C@H](CC(=O)O)NC(=O)[C@H](CC(C)C)NC(=O)[C@H](CCCCN)NC(=O)[C@H]([C@@H](C)O)NC(=O)CNC(=O)[C@H](Cc2ccccc2)NC(=O)[C@@H](C)NC1=O` [compound 100] (Hexanoyl-C[dA]FGTKLDRISC-NH2; disulfide 1-12), the EC50 was under 5 µM.

On to `CC[C@H](C)[C@@H]1NC(=O)[C@H](CCCNC(=N)N)NC(=O)[C@H](CC(=O)O)NC(=O)[C@H](CC(C)C)NC(=O)[C@H](CCCCN)NC(=O)[C@H](CC(C)C)NC(=O)CNC(=O)[C@H](Cc2ccccc2)NC(=O)[C@H](CO)NC(=O)[C@@H](NC(=O)[C@@H](N)CCSC)CSSC[C@@H](C(N)=O)NC(=O)[C@H](CO)NC1=O` [compound 18], for which the concentration for a half-maximal effect (EC50) is under 5 µM.

In the case of `CC[C@H](C)[C@@H]1NC(=O)[C@H](CCCNC(=N)N)NC(=O)[C@H](CC(=O)O)NC(=O)[C@H](CC(C)C)NC(=O)[C@H](CCCCN)NC(=O)[C@H](CC(=O)O)NC(=O)CNC(=O)[C@H](Cc2ccccc2)NC(=O)[C@H](Cc2c[nH]cn2)NC(=O)[C@@H](NC(=O)[C@@H](N)CCSC)CSSC[C@@H](C(N)=O)NC(=O)[C@H](CO)NC1=O` [compound 19] (H-MCHFGDKLDRISC-NH2; disulfide 2-13), the EC50 was under 5 µM.

Regarding `CC[C@H](C)[C@@H]1NC(=O)[C@H](CCCNC(=N)N)NC(=O)[C@H](CC(=O)O)NC(=O)[C@H](CC(C)C)NC(=O)[C@H](CCCCN)NC(=O)[C@H](CC(C)C)NC(=O)CNC(=O)[C@H](Cc2ccc(Cl)cc2)NC(=O)[C@H](Cc2c[nH]cn2)NC(=O)[C@@H](NC(=O)[C@@H](N)CCSC)CSSC[C@@H](C(N)=O)NC(=O)[C@H](CO)NC1=O` [compound 29], the EC50 was under 15 µM.

As to `CC[C@H](C)[C@@H]1NC(=O)[C@H](CCCNC(=N)N)NC(=O)[C@H](CC(=O)O)NC(=O)[C@H](CC(C)C)NC(=O)[C@H](CCCCN)NC(=O)[C@H](CC(C)C)NC(=O)CNC(=O)[C@H](Cc2ccccc2)NC(=O)[C@H](Cc2c[nH]cn2)NC(=O)[C@@H](NC(=O)[C@@H](N)CCSC)CSSC[C@@H](C(=O)O)NC(=O)[C@H](CO)NC1=O` [compound 15], the EC50 is under 15 µM.

As for `CC[C@H](C)[C@@H]1NC(=O)[C@H](CCCNC(=N)N)NC(=O)[C@H](CC(=O)O)NC(=O)[C@H](CC(C)C)NC(=O)[C@H](CCCCN)NC(=O)[C@H](CC(C)C)NC(=O)CNC(=O)[C@H](Cc2ccccc2)NC(=O)[C@@H](CO)NC(=O)[C@@H](NC(=O)[C@@H](N)CCSC)CSSC[C@@H](C(N)=O)NC(=O)[C@H](CO)NC1=O` [compound 39], the EC50 was under 5 µM.

In the case of `CCCCCC(=O)N[C@H]1CSSC[C@@H](C(N)=O)NC(=O)[C@H](CO)NC(=O)[C@H]([C@@H](C)CC)NC(=O)[C@H](CCNC(=N)N)NC(=O)[C@H](CC(=O)O)NC(=O)[C@H](CC(C)C)NC(=O)[C@H](CCCCN)NC(=O)[C@H](CC(C)C)NC(=O)CNC(=O)[C@H](Cc2ccccc2)NC(=O)[C@@H](C)NC1=O` [compound 114], the EC50 was under 15 µM.

The record behind these values is patent US9458198B1, “Cyclic peptide-based NPR-B agonists” (priority 2009, dated 2016).
